Data from Sander's compilation of Henry's law constants (doi:10.5985/jec.7.81).

Test: Henry solubility constant Hcp at 298.15 K (mol/(m3 Pa))
Details: reference: Kondoh and Nakajima (1997)

SMILES	Henry solubility constant Hcp
ClCC(Cl)(Cl)Cl [1,1,1,2-tetrachloroethane]	0.0043
CC(Cl)(Cl)Cl [1,1,1-trichloroethane]	0.00067
ClCC(Cl)Cl [1,1,2-trichloroethane]	0.011
C=C(Cl)Cl [1,1-dichloroethene]	0.00046
CC=C(Cl)Cl [1,1-dichloropropene]	0.00054
Clc1cccc(Cl)c1Cl [1,2,3-trichlorobenzene]	0.015
ClCC(Cl)CCl [1,2,3-trichloropropane]	0.028
Cc1ccc(C)c(C)c1 [1,2,4-trimethylbenzene]	0.0023
ClCC(Br)CBr (centres undefined) [1,2-dibromo-3-chloropropane]	0.5
CC(Cl)CCl (centres undefined) [1,2-dichloropropane]	0.0043
Cc1ccccc1C [1,2-dimethylbenzene]	0.0019
Cc1cc(C)cc(C)c1 [1,3,5-trimethylbenzene]	0.0015
Clc1cccc(Cl)c1 [1,3-dichlorobenzene]	0.0038
ClCCCCl [1,3-dichloropropane]	0.011
Cc1cccc(C)c1 [1,3-dimethylbenzene]	0.0015
Clc1ccc(Cl)cc1 [1,4-dichlorobenzene]	0.0047
Cc1ccc(C)cc1 [1,4-dimethylbenzene]	0.0015
Cc1ccc(Cl)cc1 [1-chloro-4-methylbenzene]	0.0029
Cc1ccc(C(C)C)cc1 [1-methyl-4-(1-methylethyl)-benzene]	0.001
CC(C)(Cl)Cl [2,2-dichloropropane]	0.00071
CC(C)(C)c1ccccc1 [(1,1-dimethylethyl)-benzene]	0.00094
CCC(C)c1ccccc1 (centres undefined) [(1-methylpropyl)-benzene]	0.00075

SMILES	Henry solubility constant Hcp
CC(C)c1ccccc1 [(2-propyl)-benzene]	0.001
c1ccccc1 [benzene]	0.0018
Brc1ccccc1 [bromobenzene]	0.0049
ClCBr [bromochloromethane]	0.0078
ClC(Cl)Br [bromodichloromethane]	0.0054
CCCCc1ccccc1 [butylbenzene]	0.00091
Clc1ccccc1 [chlorobenzene]	0.003
Cl/C=C\CCl [cis-1,3-dichloropropene]	0.0063
ClC(Br)Br [dibromochloromethane]	0.0098
BrCBr [dibromomethane]	0.012
ClCCl [dichloromethane]	0.0037
C=Cc1ccccc1 [ethenylbenzene]	0.0038
CCc1ccccc1 [ethylbenzene]	0.0014
ClC(Cl)=C(Cl)C(Cl)=C(Cl)Cl [hexachlorobutadiene]	0.0007
Cc1ccccc1 [methylbenzene]	0.0017
c1ccc2ccccc2c1 [naphthalene]	0.017
CCCc1ccccc1 [propylbenzene]	0.0011
ClC(Cl)=C(Cl)Cl [tetrachloroethene]	0.00069
ClC(Cl)(Cl)Cl [tetrachloromethane]	0.00044
Cl/C=C/CCl [trans-1,3-dichloropropene]	0.01
BrC(Br)Br [tribromomethane]	0.014
ClC=C(Cl)Cl [trichloroethene]	0.0011
